Data taken from paper PMC9878617, “Distinct conformational changes occur within the intrinsically unstructured pro‐domain of pro‐Nerve Growth Factor in the presence of ATP and Mg^2+” (Protein Science : A Publication of the Protein Society, 2023).

Biological target: T1, rh-proNGF (Homo sapiens, UniProt P01138)
T1 construct: gene NGF; proNGF without signal peptide; homodimer
Assay: ITC, global fit of two titrations (SEDPHAT)
Type: binding
Conditions: read-out: Best-fit value
From the text: ITC, global fit of two titrations (SEDPHAT) on rh-proNGF

T1 sequence (P01138 19-241): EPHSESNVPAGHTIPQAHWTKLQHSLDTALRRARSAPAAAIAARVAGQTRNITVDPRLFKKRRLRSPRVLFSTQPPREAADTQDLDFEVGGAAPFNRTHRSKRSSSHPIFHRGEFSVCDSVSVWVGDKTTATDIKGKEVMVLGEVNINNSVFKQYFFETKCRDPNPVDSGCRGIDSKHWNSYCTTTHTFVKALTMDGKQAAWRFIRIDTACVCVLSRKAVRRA

Nc1ncnc2c1ncn2[C@@H]1O[C@H](COP(=O)(O)OP(=O)(O)OP(=O)(O)O)[C@@H](O)[C@H]1O [ATP]
Kd: 39.7 µM
